{"source": "patent US12157730B2", "about": "“Heteroaryl derivative, method for producing same, and pharmaceutical composition comprising same as effective component” (VORONOI INC., priority 2019, dated 2024)", "target": "T1, Ba/F3 cell EGFR Exon20 ins NPH (Homo sapiens, UniProt P00533, INS773NPH)", "T1 construct": "expressed in transfected cells; host or cells: Ba/F3", "test": "Ba/F3 cell proliferation suppression, EGFR Exon20 ins NPH", "format": "cell-based", "settings": "GI50 class; Ba/F3 cell line with NPH inserted at Exon20 of EGFR; 72 hours", "outline": "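72 h compound exposure, 0.3 nM–50 um (12 points, 3:1 dilution in DMSO); viability by CellTiter-Glo luminescence. Ba/F3 medium: RPMI-1640, 10% FBS, 5 ng/ml IL-3, 1 ug/ml puromycin for transduced cells. GI50 vs control, n=3.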"}
{"compound": "C=CC(=O)Nc1cc(Nc2cc(N3OCC[C@@H]3c3cccc4ccccc34)ncn2)c(OC)cc1N1CCC(N2CCN(C3CC3)[C@@H](C)C2)CC1", "note": "[Example 156, N-(2-(4-((S)-4-cyclopropyl-3-methylpiperazine-1-yl)piperidine-1-yl)-4-methoxy-5-((6-((R)-3-(naphthalene-1-yl)isoxazolidine-2-yl)pyrimidine-4-yl)amino)phenyl)acrylamide]", "values": [{"measurement": "Ba/F3 (NPH) Activity", "result": "A (GI50 < 50 nM)"}]}
{"compound": "C=CC(=O)Nc1cc(Nc2cc(N3OCC[C@@H]3c3cccc(C(F)(F)F)c3)ncn2)c(OC)cc1N1CCC(N2CCN(C)CC2)CC1", "note": "[compound 453, N-(4-methoxy-2-(4-(4-methylpiperazine-1-yl)piperidine-1-yl)-5-((6-((R)-3-(3-(trifluoromethyl)phenyl)isoxazolidine-2-yl)pyrimidine-4-yl)amino)phenyl)acrylamide]", "values": [{"measurement": "Ba/F3 (NPH) Activity", "result": "A (GI50 < 50 nM)"}]}
{"compound": "C=CC(=O)Nc1cc(Nc2cc(N3OCC[C@@H]3c3cccc(C)c3F)ncn2)c(OC)cc1N1CCC(N2C[C@H]3C[C@@H]2CO3)CC1", "note": "[compound 320, N-(2-(4-((1R,4R)-2-oxa-5-azabicyclo[2.2.1]heptane-5-yl)piperidine-1-yl)-5-((6-((R)-3-(2-fluoro-3-methylphenyl)isoxazolidine-2-yl)pyrimidine-4-yl)amino)-4-methoxyphenyl) acrylamide]", "values": [{"measurement": "Ba/F3 (NPH) Activity", "result": "A (GI50 < 50 nM)"}]}
{"compound": "C=CC(=O)Nc1cc(Nc2cc(N3OCC[C@@H]3c3ccc(F)c(Cl)c3)ncn2)c(OC)cc1N1C[C@@H]2CCN(C)[C@@H]2C1", "note": "[compound 316, N-(5-((6-((R)-3-(3-chloro-4-fluorophenyl)isoxazolidine-2-yl)pyrimidine-4-yl)amino)-4-methoxy-2-((3aS,6aS)-1-methylhexahydropyrrolo [3,4-b]pyrrole-5(1H)-yl)phenyl)acrylamide]", "values": [{"measurement": "Ba/F3 (NPH) Activity", "result": "A (GI50 < 50 nM)"}]}
{"compound": "C=CC(=O)Nc1cc(Nc2cc(N3OCC[C@@H]3c3c(F)ccc(F)c3Cl)ncn2)c(OC)cc1N1CCC(N2CCN(C3CC3)CC2)CC1", "note": "[compound 933, N-(5-((6-((R)-3-(2-chloro-3,6-difluorophenyl)isoxazolidine-2-yl)pyrimidine-4-yl)amino)-2-(4-(4-cyclopropylpiperazine-1-yl)piperidine-1-yl)-4-methoxyphenyl) acrylamide]", "values": [{"measurement": "Ba/F3 (NPH) Activity", "result": "A (GI50 < 50 nM)"}]}
{"compound": "C=CC(=O)Nc1cc(Nc2cc(N3OCC[C@@H]3c3ccc(Cl)c(Cl)c3F)ncn2)c(OC)cc1N1CC[C@@H](N2CCOCC2)C1", "note": "[Example 294, N-(5-((6-((R)-3-(3,4-dichloro-2-fluorophenyl)isoxazolidine-2-yl)pyrimidine-4-yl)amino)-4-methoxy-2-((R)-3-morpholinopyrolidine-1-yl)phenyl)acrylamide]", "values": [{"measurement": "Ba/F3 (NPH) Activity", "result": "B (50 nM ≤ GI50 < 500 nM)"}]}
{"compound": "C=CC(=O)Nc1cc(Nc2cc(N3OCC[C@@H]3c3ccc(C)nc3)ncn2)c(OC)cc1N1C[C@H]2C[C@@H]1CN2CC", "note": "[Example 51, N-(2-((1R,4R)-5-ethyl-2,5-diazabicyclo [2.2.1]heptane-2-yl)-4-methoxy-5-((6-((R)-3-(6-methylpyridine-3-yl)isoxazolidine-2-yl)pyrimidine-4-yl)amino)phenyl) acrylamide]", "values": [{"measurement": "Ba/F3 (NPH) Activity", "result": "C (500 nM ≤ GI50 < 5000 nM)"}]}
{"compound": "C=CC(=O)Nc1cc(Nc2cc(N3OCC[C@@H]3c3cccc(Cl)c3F)ncn2)c(OC)cc1N1CCC(N2CCC3(CC2)CC3)CC1", "note": "[compound 355, N-(2-(4-(6-azaspiro[2.5]octan-6-yl)piperidine-1-yl)-5-((6-((R)-3-(3-chloro-2-fluorophenyl)isoxazolidine-2-yl)pyrimidine-4-yl)amino)-4-methoxyphenyl) acrylamide]", "values": [{"measurement": "Ba/F3 (NPH) Activity", "result": "A (GI50 < 50 nM)"}]}
{"compound": "C=CC(=O)Nc1cc(Nc2cc(N3OCC[C@@H]3c3cccc(Cl)c3C)ncn2)c(OC)cc1N1CCC(N2CCN(C3CC3)CC2)CC1", "note": "[Example 145, N-(5-((6-((R)-3-(3-chloro-2-methylphenyl)isoxazolidine-2-yl)pyrimidine-4-yl)amino)-2-(4-(4-cyclopropylpiperazine-1-yl)piperidine-1-yl)-4-methoxyphenyl) acrylamide]", "values": [{"measurement": "Ba/F3 (NPH) Activity", "result": "A (GI50 < 50 nM)"}]}
{"compound": "C=CC(=O)Nc1cc(Nc2cc(N3OCC[C@@H]3c3c(F)ccc(F)c3F)ncn2)c(OC)cc1N1CCC(N2CCN(C(C)C)CC2)CC1", "note": "[compound 643, N-(2-(4-(4-isopropylpiperazine-1-yl)piperidine-1-yl)-4-methoxy-5-((6-((R)-3-(2,3,6-trifluorophenyl)isoxazolidine-2-yl)pyrimidine-4-yl)amino)phenyl)acrylamide]", "values": [{"measurement": "Ba/F3 (NPH) Activity", "result": "A (GI50 < 50 nM)"}]}
{"compound": "C=CC(=O)Nc1cc(Nc2cc(N3OCC[C@@H]3Cc3cccc(F)c3C)ncn2)c(OC)cc1N1CCC(N2CCN(C3CC3)[C@H](C)C2)CC1", "note": "[compound 1004, N-(2-(4-((R)-4-cyclopropyl-3-methylpiperazine-1-yl)piperidine-1-yl)-5-((6-((S)-3-(3-fluoro-2-methylbenzyl)isoxazolidine-2-yl)pyrimidine-4-yl)amino)-4-methoxyphenyl) acrylamide]", "values": [{"measurement": "Ba/F3 (NPH) Activity", "result": "A (GI50 < 50 nM)"}]}
{"compound": "C=CC(=O)Nc1cc(Nc2cc(N3OCC[C@@H]3c3ccc(F)cc3F)ncn2)c(OC)cc1N(C)CCN(C)C", "note": "[compound 350, N-(5-((6-((R)-3-(2,4-difluorophenyl)isoxazolidine-2-yl)pyrimidine-4-yl)amino)-2-((2-(dimethylamino)ethyl)(methyl)amino)-4-methoxyphenyl) acrylamide]", "values": [{"measurement": "Ba/F3 (NPH) Activity", "result": "A (GI50 < 50 nM)"}]}
{"compound": "C=CC(=O)Nc1cc(Nc2cc(N3OCC[C@@H]3c3ccc(F)cc3)ncn2)c(OC)cc1N1CCC(N2CCN(C3CC3)CC2)CC1", "note": "[Example 66, N-(2-(4-(4-cyclopropylpiperazine-1-yl)piperidine-1-yl)-5-((6-((R)-3-(4-fluorophenyl)isoxazolidine-2-yl)pyrimidine-4-yl)amino)-4-methoxyphenyl) acrylamide]", "values": [{"measurement": "Ba/F3 (NPH) Activity", "result": "A (GI50 < 50 nM)"}]}
{"compound": "C=CC(=O)Nc1cc(Nc2cc(N3OCC[C@@H]3c3ccc4ccccc4c3)ncn2)c(OC)cc1N1CCO[C@H](C)C1", "note": "[compound 663, N-(4-methoxy-2-((R)-2-methylmorpholino)-5-((6-((R)-3-(naphthalene-2-yl)isoxazolidine-2-yl)pyrimidine-4-yl)amino)phenyl)acrylamide]", "values": [{"measurement": "Ba/F3 (NPH) Activity", "result": "B (50 nM ≤ GI50 < 500 nM)"}]}
{"compound": "C=CC(=O)Nc1cc(Nc2cc(N3OCC[C@@H]3c3cccc4ccccc34)ncn2)c(OC)cc1N1CCN(CC)CC1", "note": "[compound 444, N-(2-(4-ethylpiperazine-1-yl)-4-methoxy-5-((6-((R)-3-(naphthalene-1-yl)isoxazolidine-2-yl)pyrimidine-4-yl)amino)phenyl)acrylamide]", "values": [{"measurement": "Ba/F3 (NPH) Activity", "result": "B (50 nM ≤ GI50 < 500 nM)"}]}
{"compound": "C=CC(=O)Nc1cc(Nc2cc(N3OCC[C@@H]3c3cccc(Cl)c3)ncn2)c(OC)cc1N1C[C@@H]2C[C@H]1CO2", "note": "[compound 466, N-(2-((1S,4S)-2-oxa-5-azabicyclo[2.2.1]heptane-5-yl)-5-((6-((R)-3-(3-chlorophenyl)isoxazolidine-2-yl)pyrimidine-4-yl)amino)-4-methoxyphenyl) acrylamide]", "values": [{"measurement": "Ba/F3 (NPH) Activity", "result": "B (50 nM ≤ GI50 < 500 nM)"}]}
{"compound": "C=CC(=O)Nc1cc(Nc2cc(N3OCC[C@@H]3c3cccc(OC)c3)ncn2)c(OC)cc1N1CCC(N(C)C)CC1", "note": "[compound 731]", "values": [{"measurement": "Ba/F3 (NPH) Activity", "result": "B (50 nM ≤ GI50 < 500 nM)"}]}
{"compound": "C=CC(=O)Nc1cc(Nc2cc(N3OCC[C@@H]3Cc3cccc(Cl)c3Cl)ncn2)c(OC)cc1N1CCC(N2CCO[C@@H](C)C2)CC1", "note": "[compound 1013, N-(5-((6-((S)-3-(2,3-dichlorobenzyl)isoxazolidine-2-yl)pyrimidine-4-yl)amino)-4-methoxy-2-(4-((S)-2-methylmorpholino)piperidine-1-yl)phenyl) acrylamide]", "values": [{"measurement": "Ba/F3 (NPH) Activity", "result": "A (GI50 < 50 nM)"}]}
{"compound": "C=CC(=O)Nc1cc(Nc2cc(N3OCC[C@@H]3c3ccc(Cl)c(Cl)c3F)ncn2)c(OC)cc1N1CCC(N2CCN(C(C)=O)CC2)CC1", "note": "[compound 774, N-(2-(4-(4-acetylpiperazine-1-yl)piperidine-1-yl)-5-((6-((R)-3-(3,4-dichloro-2-fluorophenyl)isoxazolidine-2-yl)pyrimidine-4-yl)amino)-4-methoxyphenyl) acrylamide]", "values": [{"measurement": "Ba/F3 (NPH) Activity", "result": "B (50 nM ≤ GI50 < 500 nM)"}]}
{"compound": "C=CC(=O)Nc1cc(Nc2cc(N3OCC[C@@H]3Cc3ccccc3)ncn2)c(OC)cc1N1CCN(CCN(C)C)CC1", "note": "[compound 961, N-(5-((6-((S)-3-benzylisoxazolidine-2-yl)pyrimidine-4-yl)amino)-2-(4-(2-(dimethylamino)ethyl)piperazine-1-yl)-4-methoxyphenyl) acrylamide]", "values": [{"measurement": "Ba/F3 (NPH) Activity", "result": "A (GI50 < 50 nM)"}]}
{"compound": "C=CC(=O)Nc1cc(Nc2cc(N3OCC[C@@H]3c3cccc(C)c3F)ncn2)c(OC)cc1N1CCC(N2CC[C@@H](N(C)C)C2)CC1", "note": "[compound 418, N-(2-(4-((R)-3-(dimethylamino)pyrolidine-1-yl)piperidine-1-yl)-5-((6-((R)-3-(2-fluoro-3-methylphenyl)isoxazolidine-2-yl)pyrimidine-4-yl)amino)-4-methoxyphenyl) acrylamide]", "values": [{"measurement": "Ba/F3 (NPH) Activity", "result": "A (GI50 < 50 nM)"}]}
{"compound": "C=CC(=O)Nc1cc(Nc2cc(N3OCC[C@@H]3c3cccc(Cl)c3C)ncn2)c(OC)cc1N1CC[C@@H](N(C)C)C1", "note": "[compound 586, N-(5-((6-((R)-3-(3-chloro-2-methylphenyl)isoxazolidine-2-yl)pyrimidine-4-yl)amino)-2-((R)-3-(dimethylamino)pyrolidine-1-yl)-4-methoxyphenyl) acrylamide]", "values": [{"measurement": "Ba/F3 (NPH) Activity", "result": "A (GI50 < 50 nM)"}]}
